We go through seven compounds from patent US8148380B2, “Antibacterial amide and sulfonamide substituted heterocyclic urea compounds” (priority 2007, dated 2012).

Converted amounts (≈) assume the structure as drawn.

Common to all, as to format: cell-based
The test system of assay [1] is S. aureus, E. faecalis, E. faecium, S. pyogenes, S. epidermidis and S. pneumoniae. In words: Bactericidal activity. How it is done:
(§1) Compounds of the present invention were tested for antibacterial activity against a variety of pathogenic organisms including S. aureus, S. pneumoniae, S. pyogenes, E. faecalis, H. influenza and M. catarrhalis using a standard broth microdilution method to determine their minimum inhibitory concentrations (MICs). All compounds were tested using standard methods in accordance with CLSI guidelines (Clinical and Laboratory Standards Institute). Compounds described in Examples 1, 3-6, 8, 10-17, 19-21, 24-31, 33, 36, 38, 40, 54, 56-57, 59-71, 74-105, 107-108, 110-112, 114, 117-120, 122-142, 144-159, 162-179, 181-182, 184-225, 227-242, 244-319, 321-355, and 357-475 had MIC's of <0.12-4.0 μg/mL against some strains of the major Gram-positive organisms S. aureus, S. pneumoniae, S. pyogenes, and E. faecalis. […] Compounds described in Examples 11, 54, 60, and 208 shown to be bactericidal in S. aureus, E. faecalis, E. faecium, S. pyogenes, S. epidermidis and S. pneumoniae.

Assay [2] is described as follows: MIC against drug-resistant Gram-positive strains. The conditions noted are these: read-out: MIC in clinically relevant resistant strains. How it is done:
as §1
(§2) Compounds of the present invention were not compromised by existing resistance to all drug classes tested, including β-lactams, glycopeptides, oxazolidinones, macrolides, and fluoroquinolones. In particular, compounds described in Examples 11, 54, 60, and 208 were active against methicillin-(oxacillin-) resistant S. aureus (MRSA), vancomycin-intermediate S. aureus (VISA), linezolid-resistant S. aureus, methicillin-(oxacillin-) resistant and mupirocin resistant S. epidermidis, macrolide-resistant S. pyogenes, macrolide-, penicillin-, and levofloxacin-resistant S. pneumoniae, vancomycin-, macrolide-, and ciprofloxacin-resistant E. faecalis (VRE) and vancomycin-, macrolide-, and ciprofloxacin-resistant E. faecium.

Assay [3] deals with MRSA, VISA, linezolid-resistant S. aureus, resistant S. epidermidis, S. pyogenes, S. pneumoniae, E. faecalis (VRE) and E. faecium. In words: MIC against drug-resistant Gram-positive strains. The conditions noted are these: MRSA, VISA, linezolid-resistant S. aureus, resistant S. epidermidis, S. pyogenes, S. pneumoniae, E. faecalis (VRE), E. faecium. How it is done:
as §1, §2

A short description of assay [4]: MIC90 against resistant Gram-positive bacteria. As for the experimental part: as §1

A word on the MIC: it is the smallest concentration in the dilution series that meets the test's criterion for growth inhibition. Regarding `Cc1noc(C)c1C(=O)N(C)Cc1csc(NC(=O)NCc2ccc(Cl)c(Cl)c2)n1` [Example 11, N-((2-(3-(3,4-dichlorobenzyl)ureido)thiazol-4-yl)methyl)-N,3,5-trimethylisoxazole-4-carboxamide], in assay [1], the bactericidal result was “bactericidal”. For the same compound, in assay [2], the MIC lay within 0.25 to 4 µg/mL (≈ 0.534 to 8.54 µM). The “activity against drug-resistant strains” value in assay [3] is listed as “active”.
A word on the MIC90: it is the lowest concentration that inhibits either 90% of growth or 90% of the strains tested, depending on the study. The low end stands for greater potency, the high end for weaker potency. As for `Cc1noc(C)c1C(=O)N(C)Cc1csc(NC(=O)NCc2ccc(Cl)s2)n1` [Example 107, N-((2-(3-((5-chlorothiophen-2-yl)methyl)ureido)thiazol-4-yl)methyl)-N,3,5-trimethylisoxazole-4-carboxamide], the MIC90 in assay [4] fell in the range of 1 to 4 µg/mL (≈ 2.27 to 9.09 µM).
On to `Cc1noc(C)c1C(=O)N(C)Cc1csc(NC(=O)NCc2cccc(F)c2)n1` [Example 54, N-((2-(3-(3-fluorobenzyl)ureido)thiazol-4-yl)methyl)-N,3,5-trimethylisoxazole-4-carboxamide], for which, in assay [1], the bactericidal entry is “bactericidal”. The MIC in assay [2] was 0.25 to 4 µg/mL (≈ 0.599 to 9.58 µM). Moreover, in assay [3], the “activity against drug-resistant strains” value was “active”. Moreover, the MIC90 in assay [4] fell in the range of 1 to 4 µg/mL (≈ 2.4 to 9.58 µM).
For `CCc1noc(C)c1C(=O)N(C)Cc1csc(NC(=O)NCc2cccc(F)c2)n1` [Example 60, 3-ethyl-N-((2-(3-(3-fluorobenzyl)ureido)thiazol-4-yl)methyl)-N,5-dimethylisoxazole-4-carboxamide] the same measures were “bactericidal”, 0.25 to 4 µg/mL (≈ 0.579 to 9.27 µM), “active” and 1 to 4 µg/mL (≈ 2.32 to 9.27 µM).
For `CN(Cc1csc(NC(=O)NCc2cccc(F)c2)n1)C(=O)c1cc(O)nnc1Cl` [Example 208, 3-Chloro-6-hydroxy-pyridazine-4-carboxylic acid {2-[3-(3-fluoro-benzyl)-ureido]-thiazol-4-ylmethyl}-methyl-amide] the same measures were “bactericidal”, 0.25 to 4 µg/mL (≈ 0.554 to 8.87 µM), “active” and 1 to 4 µg/mL (≈ 2.22 to 8.87 µM).
`Cc1ncnc(C)c1C(=O)N(C)Cc1csc(NC(=O)NCc2cccc(F)c2)n1` [Example 96, N-((2-(3-(3-fluorobenzyl)ureido)thiazol-4-yl)methyl)-N,4,6-trimethylpyrimidine-5-carboxamide] registered an MIC90 in assay [4] of 1 to 4 µg/mL (≈ 2.33 to 9.34 µM).
For the compound `Cc1noc(C)c1C(=O)N(C)C(C#N)c1csc(NC(=O)NCc2cccc(F)c2)n1` (stereo not drawn) [Example 214, 3,5-Dimethyl-isoxazole-4-carboxylic acid (cyano-{2-[3-(3-fluoro-benzyl)-ureido]-thiazol-4-yl}-methyl)-methyl-amide], in assay [4], the MIC90 lay in the range of 1 to 4 µg/mL (≈ 2.26 to 9.04 µM).
